From the NIST ThermoML archive (doi:10.1016/j.tca.2016.12.010)
Numbers after ± are expanded uncertainties.

Experiments:
[1] = xn = mol fraction of the nth substance listed; details: 94.9 kPa, Liquid, Vibrating tube method
[2] = refractive index (Na D-line) (dimensionless); xn = mol fraction of the nth substance listed; details: 94.9 kPa, Liquid, (Schmidt +Haensch) refractometer (Model DSR lambda)

CCCCCCCCO [octan-1-ol] + Cc1ccccc1
Details	mass density, [1] [kg/m3]	refractive index, [2]
293.15 K, x1 = 0.1041	859.2 ± 4	1.48465 ± 0.0024
293.15 K, x1 = 0.1973	853.95 ± 4	1.4763 ± 0.0024
293.15 K, x1 = 0.3018	848.87 ± 4	1.4681 ± 0.0024
293.15 K, x1 = 0.4033	844.52 ± 4	1.46072 ± 0.0024
293.15 K, x1 = 0.5035	840.66 ± 4	1.45442 ± 0.0024
293.15 K, x1 = 0.6007	837.23 ± 4	1.44894 ± 0.0024
293.15 K, x1 = 0.6996	834.03 ± 4	1.44373 ± 0.0024
293.15 K, x1 = 0.793	831.2 ± 4	1.43912 ± 0.0024
293.15 K, x1 = 0.9044	828.07 ± 4	1.4338 ± 0.0024
293.15 K, x1 = 1	825.57 ± 4	1.4295 ± 0.0024
298.15 K, x1 = 0.1041	854.47 ± 4	1.48192 ± 0.0024
298.15 K, x1 = 0.1973	849.33 ± 4	1.47333 ± 0.0024
298.15 K, x1 = 0.3018	844.4 ± 4	1.46514 ± 0.0024
298.15 K, x1 = 0.4033	840.2 ± 4	1.45795 ± 0.0024
298.15 K, x1 = 0.5035	836.46 ± 4	1.45173 ± 0.0024
298.15 K, x1 = 0.6007	833.15 ± 4	1.44634 ± 0.0024
298.15 K, x1 = 0.6996	830.05 ± 4	1.44116 ± 0.0024
298.15 K, x1 = 0.793	827.33 ± 4	1.43666 ± 0.0024
298.15 K, x1 = 0.9044	824.31 ± 4	1.43178 ± 0.0024
298.15 K, x1 = 1	821.9 ± 4	1.42748 ± 0.0024
303.15 K, x1 = 0.1041	849.63 ± 4	1.47921 ± 0.0024
303.15 K, x1 = 0.1973	844.59 ± 4	1.47041 ± 0.0024
303.15 K, x1 = 0.3018	839.8 ± 4	1.46231 ± 0.0024
303.15 K, x1 = 0.4033	835.73 ± 4	1.45514 ± 0.0024
303.15 K, x1 = 0.5035	832.13 ± 4	1.44904 ± 0.0024
303.15 K, x1 = 0.6007	828.94 ± 4	1.44377 ± 0.0024
303.15 K, x1 = 0.6996	825.95 ± 4	1.43893 ± 0.0024
303.15 K, x1 = 0.793	823.32 ± 4	1.43469 ± 0.0024
303.15 K, x1 = 0.9044	820.4 ± 4	1.4298 ± 0.0024
303.15 K, x1 = 1	818.08 ± 4	1.42561 ± 0.0024
308.15 K, x1 = 0.1041	844.83 ± 4	1.47628 ± 0.0024
308.15 K, x1 = 0.1973	839.89 ± 4	1.46762 ± 0.0024
308.15 K, x1 = 0.3018	835.26 ± 4	1.45938 ± 0.0024
308.15 K, x1 = 0.4033	831.33 ± 4	1.45234 ± 0.0024
308.15 K, x1 = 0.5035	827.86 ± 4	1.44634 ± 0.0024
308.15 K, x1 = 0.6007	824.78 ± 4	1.44118 ± 0.0024
308.15 K, x1 = 0.6996	821.9 ± 4	1.43647 ± 0.0024
308.15 K, x1 = 0.793	819.36 ± 4	1.43239 ± 0.0024
308.15 K, x1 = 0.9044	816.55 ± 4	1.42757 ± 0.0024
308.15 K, x1 = 1	814.31 ± 4	1.42369 ± 0.0024
313.15 K, x1 = 0.1041	840.03 ± 4	1.47333 ± 0.0024
313.15 K, x1 = 0.1973	835.16 ± 4	1.46463 ± 0.0024
313.15 K, x1 = 0.3018	830.67 ± 4	1.45656 ± 0.0024
313.15 K, x1 = 0.4033	826.9 ± 4	1.44956 ± 0.0024
313.15 K, x1 = 0.5035	823.56 ± 4	1.44362 ± 0.0024
313.15 K, x1 = 0.6007	820.6 ± 4	1.43864 ± 0.0024
313.15 K, x1 = 0.6996	817.82 ± 4	1.43413 ± 0.0024
313.15 K, x1 = 0.793	815.37 ± 4	1.43002 ± 0.0024
313.15 K, x1 = 0.9044	812.65 ± 4	1.42559 ± 0.0024
313.15 K, x1 = 1	811.09 ± 4	1.42169 ± 0.0024
318.15 K, x1 = 0.1041	835.18 ± 4	1.47014 ± 0.0024
318.15 K, x1 = 0.1973	830.43 ± 4	1.46186 ± 0.0024
318.15 K, x1 = 0.3018	826.08 ± 4	1.45372 ± 0.0024
318.15 K, x1 = 0.4033	822.45 ± 4	1.44685 ± 0.0024
318.15 K, x1 = 0.5035	819.25 ± 4	1.44101 ± 0.0024
318.15 K, x1 = 0.6007	816.41 ± 4	1.43601 ± 0.0024
318.15 K, x1 = 0.6996	813.74 ± 4	1.43149 ± 0.0024
318.15 K, x1 = 0.793	811.38 ± 4	1.4277 ± 0.0024
318.15 K, x1 = 0.9044	808.77 ± 4	1.42342 ± 0.0024
318.15 K, x1 = 1	807.7 ± 4	1.41973 ± 0.0024
323.15 K, x1 = 0.1041	831.72 ± 4	1.46755 ± 0.0024
323.15 K, x1 = 0.1973	827.05 ± 4	1.45882 ± 0.0024
323.15 K, x1 = 0.3018	822.76 ± 4	1.45094 ± 0.0024
323.15 K, x1 = 0.4033	819.26 ± 4	1.44415 ± 0.0024
323.15 K, x1 = 0.5035	816.18 ± 4	1.43836 ± 0.0024
323.15 K, x1 = 0.6007	813.46 ± 4	1.43341 ± 0.0024
323.15 K, x1 = 0.6996	810.87 ± 4	1.42902 ± 0.0024
323.15 K, x1 = 0.793	808.58 ± 4	1.42541 ± 0.0024
323.15 K, x1 = 0.9044	806.05 ± 4	1.42136 ± 0.0024
323.15 K, x1 = 1	804.05 ± 4	1.41783 ± 0.0024
333.15 K, x1 = 0.1041	822.45 ± 4	1.46181 ± 0.0024
333.15 K, x1 = 0.1973	817.92 ± 4	1.45314 ± 0.0024
333.15 K, x1 = 0.3018	813.92 ± 4	1.44526 ± 0.0024
333.15 K, x1 = 0.4033	810.68 ± 4	1.43873 ± 0.0024
333.15 K, x1 = 0.5035	807.88 ± 4	1.43312 ± 0.0024
333.15 K, x1 = 0.6007	805.4 ± 4	1.42831 ± 0.0024
333.15 K, x1 = 0.6996	803.05 ± 4	1.42423 ± 0.0024
333.15 K, x1 = 0.793	800.97 ± 4	1.42094 ± 0.0024
333.15 K, x1 = 0.9044	798.68 ± 4	1.41714 ± 0.0024
333.15 K, x1 = 1	796.88 ± 4	1.41407 ± 0.0024

C1COCCN1 [tetrahydro-1,4-oxazine] + CCCCCCCCCCO
Details	mass density, 293.15 K [kg/m3]	mass density, 303.15 K [kg/m3]	mass density, 313.15 K [kg/m3]	mass density, 323.15 K [kg/m3]	mass density, 333.15 K [kg/m3]	refractive index, 293.15 K	refractive index, 303.15 K	refractive index, 313.15 K	refractive index, 323.15 K	refractive index, 333.15 K
[1], x1 = 0.0959	842.65 ± 4	835.47 ± 4	828.35 ± 4	821.08 ± 4	813.99 ± 4	–	–	–	–	–
[1], x1 = 0.1972	856.26 ± 4	849.05 ± 4	841.76 ± 4	834.65 ± 4	827.15 ± 4	–	–	–	–	–
[1], x1 = 0.2983	870.74 ± 4	863.32 ± 4	855.74 ± 4	848.36 ± 4	840.7 ± 4	–	–	–	–	–
[1], x1 = 0.3997	886.54 ± 4	878.86 ± 4	870.94 ± 4	863.25 ± 4	855.26 ± 4	–	–	–	–	–
[1], x1 = 0.4984	902.71 ± 4	894.8 ± 4	886.64 ± 4	878.61 ± 4	870.39 ± 4	–	–	–	–	–
[1], x1 = 0.5901	918.62 ± 4	910.46 ± 4	902.16 ± 4	894.03 ± 4	885.58 ± 4	–	–	–	–	–
[1], x1 = 0.6748	933.78 ± 4	925.53 ± 4	916.99 ± 4	908.75 ± 4	900.13 ± 4	–	–	–	–	–
[1], x1 = 0.7975	957.46 ± 4	948.96 ± 4	940.35 ± 4	931.54 ± 4	922.67 ± 4	–	–	–	–	–
[1], x1 = 0.9053	980.12 ± 4	971.33 ± 4	961.51 ± 4	952.35 ± 4	943.05 ± 4	–	–	–	–	–
[1], x1 = 1	999.54 ± 4	989.89 ± 4	979.82 ± 4	969.78 ± 4	959.74 ± 4	–	–	–	–	–
[2], x1 = 0.0959	–	–	–	–	–	1.43851 ± 0.0024	1.43425 ± 0.0024	1.43051 ± 0.0024	1.42665 ± 0.0024	1.42296 ± 0.0024
[2], x1 = 0.1971	–	–	–	–	–	1.44011 ± 0.0024	1.43584 ± 0.0024	1.43195 ± 0.0024	1.42808 ± 0.0024	1.42408 ± 0.0024
[2], x1 = 0.2983	–	–	–	–	–	1.44177 ± 0.0024	1.4374 ± 0.0024	1.43335 ± 0.0024	1.42935 ± 0.0024	1.4252 ± 0.0024
[2], x1 = 0.3997	–	–	–	–	–	1.44353 ± 0.0024	1.43915 ± 0.0024	1.43498 ± 0.0024	1.43086 ± 0.0024	1.42655 ± 0.0024
[2], x1 = 0.4984	–	–	–	–	–	1.44523 ± 0.0024	1.4408 ± 0.0024	1.43652 ± 0.0024	1.43224 ± 0.0024	1.4278 ± 0.0024
[2], x1 = 0.5901	–	–	–	–	–	1.44686 ± 0.0024	1.44235 ± 0.0024	1.43799 ± 0.0024	1.43378 ± 0.0024	1.42913 ± 0.0024
[2], x1 = 0.6748	–	–	–	–	–	1.44835 ± 0.0024	1.44395 ± 0.0024	1.43952 ± 0.0024	1.43524 ± 0.0024	1.4304 ± 0.0024
[2], x1 = 0.7975	–	–	–	–	–	1.45055 ± 0.0024	1.44625 ± 0.0024	1.4419 ± 0.0024	1.43735 ± 0.0024	1.43224 ± 0.0024
[2], x1 = 0.9053	–	–	–	–	–	1.45253 ± 0.0024	1.44834 ± 0.0024	1.44365 ± 0.0024	1.43915 ± 0.0024	1.43382 ± 0.0024
[2], x1 = 1	–	–	–	–	–	1.45453 ± 0.0024	1.45031 ± 0.0024	1.44574 ± 0.0024	1.44113 ± 0.0024	1.43562 ± 0.0024
